Assay results published in ChEMBL document CHEMBL5584267, “Discovery of the first selective, small-molecule GFRα2/3 inhibitors through DNA-encoded library technology” (Bioorg Med Chem Lett, 2024).

Key:
[1] = biological target: T1, GDNF family receptor alpha-3 (Homo sapiens) (UniProt O60609); assay: Inhibition of GFRalpha3 (unknown origin) assessed as maximal efficacy relative to control
T1 sequence (whole entry): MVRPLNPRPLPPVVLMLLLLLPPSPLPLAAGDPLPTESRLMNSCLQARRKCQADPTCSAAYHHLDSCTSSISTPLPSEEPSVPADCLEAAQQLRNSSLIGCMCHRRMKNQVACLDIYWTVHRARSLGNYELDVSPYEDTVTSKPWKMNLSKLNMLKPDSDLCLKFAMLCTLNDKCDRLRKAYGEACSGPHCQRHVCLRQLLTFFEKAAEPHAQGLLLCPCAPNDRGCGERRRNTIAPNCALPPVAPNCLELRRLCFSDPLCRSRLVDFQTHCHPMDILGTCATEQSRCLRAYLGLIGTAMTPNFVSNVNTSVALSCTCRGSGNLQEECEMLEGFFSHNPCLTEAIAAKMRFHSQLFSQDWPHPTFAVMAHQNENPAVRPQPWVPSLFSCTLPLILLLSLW

[2] = biological target: T2, Proto-oncogene tyrosine-protein kinase receptor Ret (Homo sapiens, UniProt P07949); assay: Inhibition of RET (unknown origin)
[3] = biological target: T3, GDNF family receptor alpha-2 (Homo sapiens) (UniProt O00451); assay: Inhibition of GFRalpha2 (unknown origin) assessed as maximal efficacy relative to control
T3 sequence (whole entry): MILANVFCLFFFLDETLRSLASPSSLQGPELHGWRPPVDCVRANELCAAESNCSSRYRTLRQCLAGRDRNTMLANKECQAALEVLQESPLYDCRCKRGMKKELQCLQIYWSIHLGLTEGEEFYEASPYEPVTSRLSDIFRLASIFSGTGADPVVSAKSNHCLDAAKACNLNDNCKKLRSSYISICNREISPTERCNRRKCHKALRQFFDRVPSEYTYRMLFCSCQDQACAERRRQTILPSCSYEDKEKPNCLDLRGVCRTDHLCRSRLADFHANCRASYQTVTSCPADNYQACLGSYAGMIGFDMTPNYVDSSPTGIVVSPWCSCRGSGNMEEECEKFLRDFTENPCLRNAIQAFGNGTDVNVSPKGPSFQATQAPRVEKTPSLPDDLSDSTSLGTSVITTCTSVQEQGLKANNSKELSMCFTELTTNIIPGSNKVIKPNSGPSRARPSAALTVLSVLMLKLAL

[4] = biological target: T2, Proto-oncogene tyrosine-protein kinase receptor Ret; assay: Inhibition of RET (unknown origin) assessed as maximal efficacy relative to control
[5] = biological target: T4, GDNF family receptor alpha-2 (Homo sapiens, UniProt O00451); assay: Inhibition of GFRalpha2 (unknown origin)
T4 sequence (O00451 whole entry): T3 sequence (whole entry)

[6] = biological target: T5, GDNF family receptor alpha-1 (Homo sapiens, UniProt P56159); assay: Inhibition of GFRalpha1 (unknown origin)
T5 sequence (P56159 whole entry): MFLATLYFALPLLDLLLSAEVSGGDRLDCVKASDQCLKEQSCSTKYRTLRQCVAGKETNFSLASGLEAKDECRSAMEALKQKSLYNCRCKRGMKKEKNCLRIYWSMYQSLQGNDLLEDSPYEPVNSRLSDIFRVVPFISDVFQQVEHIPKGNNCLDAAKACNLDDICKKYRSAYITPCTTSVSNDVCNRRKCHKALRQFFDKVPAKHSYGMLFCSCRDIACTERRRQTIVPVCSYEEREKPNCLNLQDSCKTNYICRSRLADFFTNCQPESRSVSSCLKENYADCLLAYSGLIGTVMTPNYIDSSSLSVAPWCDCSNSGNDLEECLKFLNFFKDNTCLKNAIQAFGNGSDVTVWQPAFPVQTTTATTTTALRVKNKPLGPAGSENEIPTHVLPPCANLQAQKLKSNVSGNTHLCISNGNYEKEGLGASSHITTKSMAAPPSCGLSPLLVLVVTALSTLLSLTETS

[7] = biological target: T6, GDNF family receptor alpha-1 (Homo sapiens) (UniProt P56159); assay: Inhibition of GFRalpha1 (unknown origin) assessed as maximal efficacy relative to control
T6 sequence (whole entry): T5 sequence (P56159 whole entry)

[8] = biological target: T7, GDNF family receptor alpha-3 (Homo sapiens, UniProt O60609); assay: Inhibition of GFRalpha3 (unknown origin)
T7 sequence (O60609 whole entry): T1 sequence (whole entry)

T2 sequence (P07949 whole entry): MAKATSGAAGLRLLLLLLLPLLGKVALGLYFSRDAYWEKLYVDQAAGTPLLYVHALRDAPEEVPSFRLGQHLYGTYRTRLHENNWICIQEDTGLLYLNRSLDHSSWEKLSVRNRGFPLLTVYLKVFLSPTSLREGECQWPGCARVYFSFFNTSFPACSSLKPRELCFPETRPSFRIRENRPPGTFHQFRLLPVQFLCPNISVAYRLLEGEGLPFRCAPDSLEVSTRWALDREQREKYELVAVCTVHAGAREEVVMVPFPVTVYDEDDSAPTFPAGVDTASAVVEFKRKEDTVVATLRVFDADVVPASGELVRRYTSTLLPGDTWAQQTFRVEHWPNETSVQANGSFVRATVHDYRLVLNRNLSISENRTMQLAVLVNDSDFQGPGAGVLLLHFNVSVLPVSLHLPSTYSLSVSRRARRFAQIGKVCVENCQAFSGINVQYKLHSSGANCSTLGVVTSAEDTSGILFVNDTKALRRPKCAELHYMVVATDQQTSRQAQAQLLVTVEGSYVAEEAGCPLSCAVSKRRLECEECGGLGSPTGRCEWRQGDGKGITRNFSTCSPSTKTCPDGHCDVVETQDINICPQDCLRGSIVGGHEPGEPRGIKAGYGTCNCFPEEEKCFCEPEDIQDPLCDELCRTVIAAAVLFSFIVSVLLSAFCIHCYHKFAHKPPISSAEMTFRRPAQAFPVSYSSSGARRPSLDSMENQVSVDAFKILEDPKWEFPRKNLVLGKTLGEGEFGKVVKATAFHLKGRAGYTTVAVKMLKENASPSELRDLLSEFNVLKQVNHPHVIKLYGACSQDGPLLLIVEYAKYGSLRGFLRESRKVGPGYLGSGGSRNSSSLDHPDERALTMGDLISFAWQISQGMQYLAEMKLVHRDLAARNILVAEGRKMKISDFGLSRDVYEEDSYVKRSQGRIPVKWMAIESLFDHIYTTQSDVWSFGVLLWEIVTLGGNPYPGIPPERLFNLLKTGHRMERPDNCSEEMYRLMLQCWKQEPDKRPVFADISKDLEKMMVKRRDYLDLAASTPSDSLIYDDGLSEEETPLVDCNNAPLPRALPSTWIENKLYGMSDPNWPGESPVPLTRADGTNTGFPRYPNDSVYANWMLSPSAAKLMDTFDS

Emax [1] [%]	IC50 [2] [µM]	Emax [3] [%]	Emax [4] [%]	IC50 [5] [µM]	IC50 [6] [µM]	Emax [7] [%]	IC50 [8] [µM]	SMILES
0	> 100	0	0	> 100	> 100	0	> 100	CNC(=O)[C@H](NC(=O)Cc1cccc(O[C@H]2CCc3cc(-c4cnc(Nc5cncnc5)nc4)ccc32)c1)C1CCCCC1
100	> 100	100	0	18	> 100	0	26	CNC(=O)[C@H](NC(=O)Cc1cccc(O[C@H]2CCc3cc(-c4cncc(Oc5ccccc5)c4)ccc32)c1)C1CCCCC1
0	0.9	0	100	> 100	> 100	0	> 100	CNC(=O)[C@H](NC(=O)Cc1cccc(O[C@H]2CCc3cc(-c4cncnc4)ccc32)c1)C1CCCCC1
71	> 100	56	0	1	2.1	52	0.7	CNC(=O)[C@H](NC(=O)Cc1cccc(O[C@H]2CCc3cc(-c4cnc(Nc5ccccc5)nc4)ccc32)c1)C1CCCCC1
0	> 100	0	0	> 100	> 100	0	> 100	CO[C@H]1CCc2cc(-c3cnc(Nc4ccccc4)nc3)ccc21
71	16	0	92	> 100	> 100	0	8.8	O[C@H]1CCc2cc(-c3cnc(Nc4ccccc4)nc3)ccc21
66	> 100	66	0	9.9	> 100	0	9.1	CNC(=O)[C@H](NC(=O)Cc1cccc(O[C@H]2CCc3ccccc32)c1)C1CCCCC1
100	> 100	0	0	> 100	29.9	97	13.4	CNC(=O)[C@@H](Cc1c[nH]cn1)NC(=O)Cc1cccc(O[C@H]2CCc3cc(-c4cnc(Nc5ccccc5)nc4)ccc32)c1
100	> 100	100	0	0.1	0.25	86	0.2	CNC(=O)[C@H](NC(=O)Cc1cccc(O[C@@H]2Cc3ccc(-c4cnc(Nc5ccccc5)nc4)cc3C2)c1)C1CCCCC1 (racemic)
0	> 100	0	0	> 100	> 100	0	> 100	NC(=O)Cc1cccc(O[C@H]2CCc3cc(-c4cnc(Nc5ccccc5)nc4)ccc32)c1
59	2.3	0	93	> 100	> 100	0	2.8	O=C(O)Cc1cccc(O[C@H]2CCc3cc(-c4cnc(Nc5ccccc5)nc4)ccc32)c1
70	1.1	46	65	3.7	> 100	0	5.4	CNC(=O)[C@H](Cc1c[nH]cn1)NC(=O)Cc1cccc(O[C@H]2CCc3cc(-c4cnc(Nc5ccccc5)nc4)ccc32)c1
100	> 100	0	0	> 100	> 100	0	7.4	COC(=O)[C@H](Cc1cnc[nH]1)NC(=O)Cc1cccc(O[C@H]2CCc3cc(-c4cncc(Oc5ccccc5)c4)ccc32)c1
0	> 100	0	0	> 100	> 100	0	> 100	CNC(=O)[C@H](NC(=O)Cc1cccc(Oc2cnc(Nc3ccccc3)nc2)c1)C1CCCCC1
100	0.8	69	68	2.5	1	79	1.1	NC(=O)[C@H](NC(=O)Cc1cccc(O[C@H]2CCc3cc(-c4ncc(Nc5ccccc5)cn4)ccc32)c1)C1CCCCC1
0	> 100	0	0	> 100	> 100	0	> 100	CNC(=O)Cc1cccc(O[C@H]2CCc3cc(-c4cnc(Nc5ccccc5)nc4)ccc32)c1
